In US20180318355A1, “METHODS AND COMPOSITIONS FOR IMPROVED TISSUE REGENERATION BY SUPPRESION OF INTERFERIN-GAMMA AND TUMOR NECROSIS FACTOR-ALPHA” (Alfred E. Mann Institute for Biomedical Eng. at the …, priority 2011, published 2018):
Entries after “also recorded” stand apart in the source; their conditions may differ. Where a SMILES comes first, the peptide text is derived from it. The star is where a group is joined. Cbz = O=C(OCc1ccccc1)*; CH2F = FC*

Experiments:
Fas = Fas internalization (immunocytochemical staining); format: cell-based, mouse; settings: caspase inhibitor in IFN-γ/TNF-α-treated BMMSCs vs control group
Protocol: (§1) SiRNAs for Fas, TNFR2, IKK, FLIP and XIAP were used to treat the BMMSCs according to the manufacture's instruction, and IFN-γ and TNF-α were added for 24 hrs. Inhibitors for internalization (Latrunculin A, 0.2 μM), pan caspase (Z-VAD (OMe)-FMK, 50 μM), caspase 8 ([…], 20 μM) and caspase 3 (Z-DEVD-FMK, 20 µM) were used to treat the BMMSCs at 4 hrs before IFN-γ and TNF-α were added. Cell apoptosis were analysis by immunofluorescence staining and FACS^Calibur (Annexin V-PE apoptosis detection kit I) and Western blot analysis for caspase 8, cleaved caspase 8, caspase 3 and cleaved caspase 3.
Fas internalization. P1 BMMSCs were seeded to 2-well chamber slide. IFN-γ (50 ng/ml) was added to pre-treat BMMSCs for 24 hours, and then TNF-α (20 ng/ml) was added. At the 0.5, 1, 2, 4 hours after TNF-α was added, the cells were washed by PBS twice, and fixed with 4% PFA for 15 min. After treated by Triton-X 15 min, the cells were blocked with normal serum matched to secondary antibodies, incubated with 1 μg/ml anti-Fas (Santa Cruz) antibody at room temperature for 2 hours, treated with Rhodamin-conjugated secondary antibodies (1:200, Jackson ImmunoResearch). Then the cells were incubated with ([…] (1:40; Invitrogen) at room temperature for 20 min, and were mounted by vectashield mounting medium DAPI (Vector Laboratories).

BMMSCs [1] = assay: siRNA and inhibitors: IFN-γ/TNF-α-induced BMMSC death; format: cell-based, mouse; settings: siRNA or inhibitor treatment before IFN-γ/TNF-α, toluidine blue staining
Protocol: as §1

[2] = tested on: Fas, caspase 8, caspase 3; assay: Western blot of Fas, cleaved caspase 8 and cleaved caspase 3 in BMMSCs; format: cell-based, mouse; settings: for cleaved caspase 3 in IFN-γ/TNF-α-treated BMMSCs / cleaved caspase 8 in IFN-γ/TNF-α-treated BMMSCs: siRNA or inhibitor treatment before IFN-γ/TNF-α; for Fas expression / activation of caspase 3 and caspase 8: wild type BMMSCs, IFN-γ 50 ng/ml, TNF-α 20 ng/ml, alone or co-stimulated
Protocol: (§2) Western blot analysis. Total protein was extracted using M-PER mammalian protein extraction reagent (Thermo, Rockford, Ill.). Nuclear protein was obtained using NE-PER nuclear and cytoplasmic extraction reagent (Thermo). Protein was applied and separated on 4-12% NuPAGE gel (Invitrogen) and transferred to Immobilon™-P membranes (Millipore). The membranes were blocked with 5% non-fat dry milk and 0.1% tween-20 for 1 hour, followed by incubation with the primary antibodies (1:20¬1000 dilution) at 4° C. overnight. Horseradish peroxidase-conjugated IgG (Santa Cruz Biosciences; 1:10,000) was used to treat the membranes for 1 hour, and enhanced with a SuperSignal® West Pico Chemiluminescent Substrate (Thermo). The bands were detected on BIOMAX MR films (Kodak, Rochester, N.Y.). Each membrane was also stripped using a stripping buffer (Thermo) and reprobed with anti-β-actin antibody to quantify the amount of loaded protein.
as §1

BMMSCs [3] = assay: Cell apoptosis and cell survival assay in vitro (toluidine blue, Annexin V)
Protocol: Cell apoptosis and cell survival assay. 0.5×10^6 BMMSCs were seeded to 6-well culture plate and co-cultured with different doses of recombined IL-4, IL-6, IL-17A, TGF-β1, TNF-α and IFN-γ (0, 10, 20, 50, 100, 200 ng/ml) for 3 days. To measure the cell viability, the total cells were analyzed by using a cell counting kit-8 (Dojindo Molecular Technoloies, Gaithersburg, Md.) according to the manufacture's instruction. And the culture plates with cells were stained with 2% toluidine blue O and 2% paraformaldehyde (Sigma-Aldrich Corporate, St. Louis, Mo.).
For cell apoptosis analysis, the BMMSCs were stained by Annexin V-PE apoptosis detection kit I (BD Bioscience) following manufacture's protocol, and analyzed by FACS^Calibur (BD Bioscience).
IFN-γ and TNF-α synergism for apoptosis. For cell apoptosis staining, the 1×10^4 BMMSCs were seeded onto two chambers slide, IFN-γ (50 ng/ml) and TNF-α (20 ng/ml) were used to treat the BMMSCs for 24 hrs either separately or combined, Annexin V-PE apoptosis detection kit I (BD Bioscience) was used to stain the BMMSCs following manufacture's protocol, and analyzed on microscopy and FACS^Calibur (BD Bioscience). Cell viability was analyzed by using cell counting kit, and culture plates were stained with 2% toluidine blue O and 2% paraformaldehyde.
IFN-γ and TNF-α synergism for apoptosis. 0.5×10^6 BMMSCs were seeded to 6-well culture plate and co-cultured with different doses of TNF-α (0, 5, 50, 100 ng/ml) with or without IFN-γ (50 ng/ml) for I day. Then, the BMMSCs were stained by Annexin V-PE apoptosis detection kit I (BD Bioscience) following manufacture's protocol, and analyzed by FACS^Calibur (BD Bioscience).

GFP^+ BMMSCs = assay: Cell survival assay, subcutaneous GFP+ BMMSC implantation; format: in vivo, mice; settings: TNF-α 50 ng/ml, immunocompromised mice, 30 days post implantation, vs untreated control
Protocol: Cell survival assay. 4×10^6 BMMSCs isolated from C57BL/6-Tg (CAG-EGFP)1Osb/J mice were combined with different concentrations of IFN-γ (0, 20, 50, 100, 200 ng/ml) and TNF-α (0, 20, 50, 100, 200 ng/ml) and subcutaneously transplanted into immunocompromised mice, hydrogel was used as a slowly released carrier. Thirty days after translation, the implants were harvested and digested in a solution of 3 mg/mL collagenase type I (Worthington Biochem) and 4 mg/mL dispase (Roche) for 1 h at 37° C. Single-cell suspensions were obtained by passing the cells through a 70 μm strainer (BD Bioscience). 1.0-1.5×10^6 BMMSCs were seeded into 100 mm culture dishes (Corning) and incubated for 48 hours under 37° C. at 5% CO2 condition. To eliminate the non-adherent cells, the cultures were washed with PBS twice. The attached cells were cultured for 10 days with alpha minimum essential medium (α-MEM, Invitrogen) supplemented with 20% FBS, 2 mM L-glutamine (Invitrogen), 55 μM 2-mercaptoethanol (Invitrogen), 100 U/ml penicillin, and 100 μg/ml streptomycin (Invitrogen). The numbers of GFP positive cells were counted under fluorescent microscopy.

[4] = tested on: BMMSC-mediated bone formation; assay: BMMSC-mediated bone formation, subcutaneous BMMSC/HA/TCP implantation; format: in vivo; settings: 200 ng cytokine in hydrogel co-implanted with BMMSCs/HA/TCP, immunocompromised mice, 8 weeks post implantation
Protocol: BMMSC-mediated bone formation. Approximately 4.0×10^6 BMMSCs were mixed with hydroxyapatite/tricalcium phosphate (HA/TCP) ceramic particles (40 mg, Zimmer Inc., Warsaw, Ind.) as a carrier and subcutaneously implanted into the dorsal surface of 8-10 weeks old immunocompromised mice or C57BL/6J mice. At eight weeks post-implantation, the implants were harvested, fixed in 4% paraformaldehyde and then decalcified with 5% EDTA (pH 7.4), followed by paraffin embedding. The 6 μm paraffin sections were stained with hematoxylin and eosin (H&E) and analyzed by an NIH Image J. Five fields were selected and newly formed mineralized tissue area in each field was calculated and shown as a percentage to total tissue area.
Cytokines in BMMSC-mediated bone formation. Approximately 4.0×10^6 of littermate-derived or autologous BMMSCs were mixed with HA/TCP ceramic powders (40 mg, Zimmer Inc.), and hydrogel (Glycosan Biosysterms, Salt Lake City, Utah) with 200 ng IFN-γ, TNF-α, IL-4, IL-6 or IL-17A were covered on the surface of the implants as a slow released system. At eight weeks post-implantation, the implants were harvested and newly formed mineralized tissue areas were analyzed. […]
BMMSC-mediated bone formation. Approximately 4.0×10^6 of littermate-derived or autologous BMMSCs were mixed with hydroxyapatite/tricalcium phosphate (HA/TCP) ceramic particles (40 mg, Zimmer Inc., Warsaw, Ind.) as a carrier and subcutaneously implanted into the dorsal surface of 8-10 weeks old immunocompromised mice or C57BL6 mice. When aspirin was used, BMMSCs were treated with 50 μg/ml aspirin for 2 days and mixed with HA/TCP particles to be subcutaneously implanted into immunocompromised mice. When IFN-γ and TNF-α were used in the subcutaneous implants, 200 ng IFN-γ, TNF-α or/and 100 μg aspirin mixed with 250 μl hydrogel as a slow released system and subcutaneously co-implanted to the dorsal surface of 8-10 weeks old immunocompromised mice.
At eight weeks post-implantation, the implants were harvested, fixed in 4% paraformaldehyde and then decalcified with 5% EDTA (pH 7.4), followed by paraffin embedding. The 6 μm paraffin sections were stained with hematoxylin and eosin (H&E) and analyzed by an NIH Image J. Five fields were selected and newly formed mineralized tissue area in each field was calculated and shown as a percentage to total tissue area.

BMMSCs [5] = assay: Osteogenic differentiation assay (alizarin red staining); format: cell-based, mouse; settings: for mineralized nodule formation / osteogenic differentiation of BMMSCs: alizarin red
Protocol: (§3) Osteogenic differentiation assay. BMMSCs were cultured under osteogenic culture condition media containing 2 mM […] (Sigma-Aldrich), 100 μM L-ascorbic acid 2-phosphate and 10 nM dexamethasone (Sigma-Aldrich). Different doses of IFN-γ (50, 200 ng/ml) were added to the osteogenic culture condition media every 3 days. After the osteogenic induction, the cultures were stained with alizarin red. Expressions of Runx2, ALP, and OCN were assayed by Western blot analysis.

[6] = tested on: Smad 6, Smad 7, Runx2, ALP, OCN; assay: Western blot of Smad 6, Smad 7 and osteogenic genes in BMMSCs; format: cell-based, mouse
Protocol: as §3, §2

[7] = Fas^−/− BMMSCs from lpr mice and Fas knock down BMMSCs by siRNA

COC(=O)CC[C@H](NC(=O)[C@H](CC(=O)OC)NC(=O)OCc1ccccc1)C(=O)N[C@H](C(=O)N[C@@H](CC(=O)OC)C(=O)CF)C(C)C [Caspase 3 inhibitor, Z-DEVD-FMK]
number of BMMSCs with Fas internalization (Fas): reduced number of Fas internalization | IFN-γ/TNF-α-induced BMMSC death (BMMSCs [1]): rescuing IFN-γ/TNF-α-induced BMMSC death | cleaved caspase 3 in IFN-γ/TNF-α-treated BMMSCs [2]: partially inhibition | cleaved caspase 8 in IFN-γ/TNF-α-treated BMMSCs [2]: no inhibitive effect

CC[C@H](C)[C@H](NC(=O)OCc1ccccc1)C(=O)N[C@@H](CCC(=O)OC)C(=O)N[C@H](C(=O)N[C@@H](CC(=O)OC)C(=O)CF)[C@@H](C)O [Caspase 8 inhibitor, 2-IETD-FMK] (Cbz-IE(OMe)TD(OMe)-CH2F)
number of BMMSCs with Fas internalization (Fas): reduced number of Fas internalization | IFN-γ/TNF-α-induced BMMSC death (BMMSCs [1]): rescuing INF-γ/TNF-α-induced cell death | cleaved caspase 3 in IFN-γ/TNF-α-treated BMMSCs [2]: reduce levels | cleaved caspase 8 in IFN-γ/TNF-α-treated BMMSCs [2]: reduce levels

C/C1=C/C(=O)O[C@@H]2C[C@@H](CC[C@H](C)/C=C\C=C\CC1)O[C@@](O)([C@@H]1CSC(=O)N1)C2 [Lnt A, Latrunculin A]
IFN-γ/TNF-α-induced BMMSC death (BMMSCs [1]): significantly reduced | IFN-γ/TNF-α-induced BMMSC death (BMMSCs [1]; listed as LntA): partially rescue | cleaved caspase 3 in IFN-γ/TNF-α-treated BMMSCs [2]: significantly reduced | cleaved caspase 8 in IFN-γ/TNF-α-treated BMMSCs [2]: significantly reduced | cleaved caspase 3 in IFN-γ/TNF-α-treated BMMSCs ([2]; listed as LntA): inhibition of cleaved caspase 3 and 8 | cleaved caspase 8 in IFN-γ/TNF-α-treated BMMSCs ([2]; listed as LntA): inhibition of cleaved caspase 3 and 8

COC(=O)C[C@H](NC(=O)[C@H](C)NC(=O)[C@@H](NC(=O)OCc1ccccc1)C(C)C)C(=O)CF [pan caspase inhibitor, Z-VAD (OMe)-FMK] (Cbz-Val-Ala-Asp(OMe)-CH2F)
number of BMMSCs with Fas internalization (Fas): reduced number of Fas internalization

TNF-α
BMMSC apoptosis (BMMSCs [3]; TNF-α 0, 5, 50, 100 ng/ml, flow cytometric analysis): dose-dependent BMMSC apoptosis | numbers of surviving BMMSCs in implants (GFP^+ BMMSCs): marked reduction in the numbers of survived BMMSCs; also recorded: significant reduction in the numbers of surviving cells | new bone formation in BMMSC implants [4]: very limited bone formation; also recorded: inhibited subcutaneous bone formation; also recorded: reduced BMMSC-mediated bone formation; also recorded: significantly reduced bone formation | Fas expression [2]: slightly increase | activation of caspase 3 and caspase 8 [2]: slightly increase

B1: IFN-γ: Recombinant murine IFN-γ purchased from PeproTech (protein, UniProt P01580 23-155, looked up)
Interferon gamma: HGTVIESLESLNNYFNSSGIDVEEKSLFLDIWRNWQKDGDMKILQSQIISFYLRLFEVLKDNQAISNNISVIESHLITTFFSNSKAKKDAFMSIAKFEVNNPQVQRQAFNELIRVVHQLLPESSLRKRKRSRC
TNF-α-induced BMMSC apoptosis (BMMSCs [3]; IFN-γ 50 ng/ml added to TNF-α 0, 5, 50, 100 ng/ml, flow cytometric analysis): significantly enhanced TNF-α-induced BMMSC apoptosis | TNF-α-induced BMMSC apoptosis (BMMSCs [3]; IFN-γ 50 ng/ml added to TNF-α 50-200 ng/ml, toluidine blue staining): synergistically enhanced; also recorded: significantly enhanced BMMSC apoptosis | TNF-α-induced BMMSC apoptosis (BMMSCs [3]; IFN-γ 50 ng/ml with TNF-α 20 ng/ml, 7AAD/Annexin staining): accelerated; also recorded: enhanced | BMMSC death (BMMSCs [3]; IFN-γ 1 to 50 ng/ml with TNF-α 50 ng/ml): dose dependent BMMSC death; also recorded: correlated with IFN-γ concentration | BMMSC death (BMMSCs [3]; IFN-γ 100-200 ng/ml with TNF-α 50 ng/ml): no any BMMSC survived; also recorded: complete BMMSC apoptosis | BMMSC death / viability (BMMSCs [3]; single cytokine, 1-200 ng/ml, three days, toluidine blue staining): no effect; also recorded: not able to induce BMMSC apoptosis | mineralized nodule formation / osteogenic differentiation of BMMSCs (BMMSCs [5]; 50 ng/ml IFN-γ): no significant inhibitive effect; also recorded: no inhibitory effect | mineralized nodule formation / osteogenic differentiation of BMMSCs (BMMSCs [5]; 200 ng/ml cytokine, osteogenic media, 14 days): significantly inhibited mineralized nodule formation; also recorded: significant reduction in mineralized nodule formation; also recorded: inhibited osteogenic differentiation | osteogenesis of Fas-deficient BMMSCs (BMMSCs [5]; [7]): failed to block osteogenesis; also recorded: failed to reduce ostoegenic differentiation | Smad 6 elevation and inhibition of osteogenic genes ([6]; 50 ng/ml IFN-γ): not observed | Smad 6 expression ([6]; 200 ng/ml IFN-γ): elevated; also recorded: up-regulated expression | expression of osteogenic genes Runx2, ALP and OCN ([6]; 200 ng/ml IFN-γ): inhibited; also recorded: down-regulated expression | expression levels of Smad 6 and Runx2 [6, 7]: failed to block osteogenesis and alter expression levels of Smad 6 and Runx2; also recorded: failed to reduce ostoegenic differentiation and alter expression levels of Smad 6 and Runx2 | expression level of Smad 7 ([6]; IFN-γ-treated BMMSCs): not altered | new bone formation in BMMSC implants [4]: completely blockage of new bone formation; also recorded: inhibited subcutaneous bone formation; also recorded: reduced BMMSC-mediated bone formation; also recorded: significantly reduced bone formation | Fas expression [2]: up-regulated expression of Fas; also recorded: activated | activation of caspase 3 and caspase 8 [2]: no activation of caspase 3 and caspase 8; also recorded: without activating caspase 3 and caspase 8
